Publication PMC3660741, “Structure of a pore-blocking toxin in complex with a eukaryotic voltage-dependent K^+ channel” (eLife, 2013)

Assays:
Shaker K+ channel = settings: cited from earlier work
Source text: In studies with the BK channel, [MacKinnon and Miller (1988)] first observed that permeant ions coming through the channel from the intracellular side enhance the dissociation of a toxin bound to its receptor on the extracellular side.

Phe425Gly(Shaker) = settings: Gly10Val(AgTx2)–Phe425Gly(Shaker) pair; ref Ranganathan et al., 1996; cited from earlier work
Source text: (§1) From analyzing mutants of AgTx2 and Shaker, MacKinnon and Ranganathan derived a coupling energy of >3 kT for the Gly10Val(AgTx2)–Phe425Gly(Shaker) pair and ∼1.5 kT for the Gly10Val(AgTx2)–Thr449Cys(Shaker) pair ([Ranganathan et al., 1996]). Phe425 and Thr449 in Shaker map onto Gln353 and Val377 in paddle chimera (Figure 2B).

Thr449Cys(Shaker) = settings: Gly10Val(AgTx2)–Thr449Cys(Shaker) pair; ref Ranganathan et al., 1996; cited from earlier work
Source text: as §1

[1] = target: T1, Kv2.1 paddle–Kv1.2 chimera channel (paddle chimera) (Rattus norvegicus, UniProt P63142, DEL270-295/F267Y/F302L/I268V/INS296[…]/L298I/N207Q/V299M/V301I); test: CTX inhibition of paddle chimera in planar lipid bilayer, dose-response fitted for Kd; type: biochemical; settings: CsCl vs KCl on both sides; planar bilayer of 20 mg/ml DPhPC; holding −110 mV, pulsed to +110 mV; n = 2–4
T1 construct: made in house; host or cells: Pichia pastoris
Source text: Figure 8. Effects of Lys27Met mutation of CTX and Cs^+ separately on toxin-channel interactions. (A) CTX inhibition. The fraction of unblocked current (I/Imax, mean ± SEM or range of mean; n = 2–4) is graphed as a function of CTX concentration (in nM) and fit to the equation I/Imax = 0.1 + 0.9 × (1 + [CTX]/Kd)^−1. Voltage pulses: holding −110 mV, depolarized to +110 mV, followed by a step back to −110 mV. Paddle chimera–wild-type CTX with KCl on both sides is shown in red, paddle chimera–wild-type CTX with CsCl on both sides is shown in blue and paddle chimera–Lys27Met CTX with KCl on both sides is shown in black. The modified equation accounts for approximately 10% current that is due largely to the channels facing the other side and are not blocked by toxin. (B) The pore domains from two diagonal subunits of paddle chimera (molecule A) in the Lys27MetCTX–paddle chimera complex are shown in green α carbon trace and a toxin-omit weighted 2Fo − Fc electron density map is shown in wire mesh at 1σ contour level. […]
The membranes were held at −110 mV and repeatedly pulsed to +110 mV test voltage. CTX inhibition data measured with different concentrations of CTX or Lys27Met mutant of CTX were fit to the equation: I/Imax=0.1+0.9×(1+[CTX]/Kd)^−1. […]

paddle chimera = settings: planar lipid bilayers; ref Tao and MacKinnon, 2008; read-out: Kd (inhibition of paddle chimera); cited from earlier work
BK channel = settings: 1988, cited from earlier work
Source text: Charybdotoxin (CTX; Figure 1B), a pore-blocking toxin for K^+ channels, is a 37-residue peptide isolated from the venom of the scorpion Leiurus quinquestriatus ([Miller et al., 1985]).

[2] = target: Kv2.1 paddle–Kv1.2 chimera channel in complex with the rat β2-core subunit (rat) (UniProt P63142); test: planar lipid bilayer electrophysiology (inhibition of channel current)
Tyr445Phe(Shaker) = settings: ref Ranganathan et al., 1996, cited from earlier work
Source text: Another case worth highlighting is the coupling energy, ∼1.5 kT, between the Lys27Met(AgTx2)–Tyr445Phe(Shaker) pair. Tyr445 in Shaker maps to Tyr373 in paddle chimera (Figure 2B; [Ranganathan et al., 1996]). Since mutation of Tyr to Phe incurs only a loss of the hydroxyl group, one likely interpretation of this would have been that Lys27 contacts the hydroxyl group of Tyr445. Intriguingly, Lys27 only contacts the backbone carbonyl oxygen of Tyr445, a point farthest from the hydroxyl group (Figure 10B). However, since this is a tightly packed part of the protein structure with the hydroxyl grou ...

T1 sequence (P63142 with tags, fused parts or gaps with the stated changes): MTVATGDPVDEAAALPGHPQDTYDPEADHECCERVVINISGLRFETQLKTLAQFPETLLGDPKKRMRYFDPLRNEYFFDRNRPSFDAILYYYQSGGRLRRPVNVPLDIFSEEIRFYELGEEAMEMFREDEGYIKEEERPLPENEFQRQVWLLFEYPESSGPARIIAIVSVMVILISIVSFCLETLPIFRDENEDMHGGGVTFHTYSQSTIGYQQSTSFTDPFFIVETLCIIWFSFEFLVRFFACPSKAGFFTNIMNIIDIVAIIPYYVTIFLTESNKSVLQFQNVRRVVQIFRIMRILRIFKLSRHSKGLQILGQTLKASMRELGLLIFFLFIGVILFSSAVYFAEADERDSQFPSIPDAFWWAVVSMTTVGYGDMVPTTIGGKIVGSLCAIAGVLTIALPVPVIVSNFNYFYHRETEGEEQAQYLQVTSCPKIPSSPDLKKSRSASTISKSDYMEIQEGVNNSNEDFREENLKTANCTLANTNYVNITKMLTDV
T1 sequence (P62483 36-367 partner limits assumed): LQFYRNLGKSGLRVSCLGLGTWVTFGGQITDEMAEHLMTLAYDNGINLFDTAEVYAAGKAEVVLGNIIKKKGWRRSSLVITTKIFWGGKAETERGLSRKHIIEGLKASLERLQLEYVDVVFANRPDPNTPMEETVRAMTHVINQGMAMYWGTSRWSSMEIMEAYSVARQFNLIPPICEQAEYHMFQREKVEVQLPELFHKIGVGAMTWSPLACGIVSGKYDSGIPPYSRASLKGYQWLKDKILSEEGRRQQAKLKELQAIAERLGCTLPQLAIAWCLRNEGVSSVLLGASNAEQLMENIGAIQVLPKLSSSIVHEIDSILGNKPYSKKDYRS
Chain of charybdotoxin, wild type (P13487 23-59): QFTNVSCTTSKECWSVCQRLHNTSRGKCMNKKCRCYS

In the case of “mutation of Lys27 to Arginine: conservative mutation of Lys27 to Arginine, literature CTX mutant (Goldstein et al., 1994)”, the “destabilization of the toxin-channel complex” value (Shaker K+ channel; conservative mutation of Lys27 to Arginine, Shaker, ref Goldstein et al., 1994) is given as ~1000 fold.

In the case of “Gly10Val(AgTx2): Gly10Val mutant of AgTx2 (Ranganathan et al., 1996)”, the coupling energy (Phe425Gly(Shaker)) is listed as > 3 kT and the coupling energy (Thr449Cys(Shaker)) is listed as ~1.5 kT.

For charybdotoxin [CTX], the “reduction in affinity in the presence of Cs+ compared to K+” value [1] is listed as ~10 fold, the Kd (paddle chimera) is listed as ~20 nM and the “channel states competent for toxin binding” value (BK channel; ref Anderson et al.) is listed as “both the open and closed states of the channel are competent for toxin binding”. For the same substance, the “role of electrostatic interactions in affinity” value (BK channel; ref Anderson et al.) was “electrostatic interactions play an important role in enhancing the toxin’s affinity”, the “voltage dependence of affinity” value (BK channel; results from trans-enhanced dissociation by permeant ions entering from the intracellular side, ref MacKinnon and Miller) was “voltage dependent” and the “trans-enhanced dissociation effect of permeant ions on CTX block” value (Shaker K+ channel; ref Goldstein and Miller, 1993) was “subsequently confirmed for Shaker as well”.

With “charybdotoxin, wild type (from UniProt P13487 23-59) (peptide)” the fold reduction of affinity in Cs+ against K+ [2] was 10 fold.

In the case of “Lys27Met(AgTx2): Lys27Met mutant of AgTx2 (Ranganathan et al., 1996)”, the “K+ dependence of the interaction between the two residues” value (Tyr445Phe(Shaker); Lys27 (AgTx2) and Tyr445 (Shaker)) is listed as “dependent on the K^+ concentration” and the coupling energy (Tyr445Phe(Shaker); Lys27Met(AgTx2)–Tyr445Phe(Shaker) pair) is listed as ~1.5 kT.
